Here are results for three compounds from article PMC11324046, “Second-generation piperazine derivatives as promising radiation countermeasures” (RSC Medicinal Chemistry, 2024).

A short description of series [1]: WST-1 proliferation assay, Jurkat. The class given is cell-based. The conditions noted are these: human, Jurkat cells (acute T-cell leukemia), vs 0.1% DMSO control = 100%, mean ± standard deviation. How it is done:
(§1) A thorough analysis of antiproliferative activity was performed across various cell culture types representing different histotypes: leukemia (Jurkat, MOLT-4), lung adenocarcinoma (A549), colorectal adenocarcinoma (HT-29), pancreatic carcinoma (PANC-1), breast adenocarcinoma (MCF-7), osteosarcoma (SAOS-2), and one non-cancerous cell line (fetal lung fibroblasts MRC-5). The cell lines were exposed to the newly synthesized compounds at a concentration of 100 μM for 48 h in a single-dose treatment. Changes in cell proliferation compared to the vehicle 0.1% dimethyl sulfoxide (DMSO) control were determined using the WST-1 assay, which is based on mitochondrial dehydrogenase metabolic activities. […] The overall cytotoxic activity of each compound was expressed as growth percent (GP) – the mean of the proliferation of all cell lines treated with the same compound.
(§2) Selected human tumor and non-tumor cell lines Jurkat (acute T-cell leukemia), MOLT-4 (acute lymphoblastic leukemia), A549 (lung carcinoma), HT-29 (colorectal adenocarcinoma), PANC-1 (pancreas epithelioid carcinoma), MCF-7 (breast adenocarcinoma), SAOS-2 (osteosarcoma) and MRC-5 (normal lung fibroblasts) were purchased from either American Type Culture Collection (ATCC; VA, USA) or Sigma-Aldrich (St. Louis, MO, USA) and cultured according to the provider's culture method guidelines. All cell lines were maintained at 37 °C in a humidified 5% carbon dioxide and 95% air incubator. Cells in the maximum range of either 10 passages for the adherent cell lines (A549, HT-29, PANC-1, MCF-7, SAOS-2, and MRC-5), or 20 passages for suspension cell lines (Jurkat, MOLT-4,) and in an exponential growth phase were used for this study. Screening of the antiproliferative effect and growth percent calculation were conducted as follows: each cell line was seeded at previously established optimal density (1–50 × 10^3 cells per well) in a 96-well plate (TPP, Trasadingen, Switzerland) and cells were allowed to settle overnight. Cells were treated for 48 h with compounds at a final concentration of 100 μM. At the end of the cultivation period, the WST-1 proliferation assay (Roche, Basel, Switzerland) was performed according to the manufacturer's protocol. The absorbance was measured at 440 nm using a Tecan Spark multimode microplate reader (Tecan, Mannedorf, Switzerland). Each value is the mean of three independent experiments and represents the percentage of proliferation (100% cell proliferation for 0.1% DMSO mock-treated control cells). The GP value was calculated for each compound tested. GP represents the mean of the percentage proliferation decrease of all cell lines treated with the same compound.
A general note: Formazan colour is commonly taken as a measure of viable cells.

Series [2] can be described thus: WST-1 proliferation assay, MOLT-4. Format: cell-based. To be noted: human, MOLT-4 cells (acute lymphoblastic leukemia), vs 0.1% DMSO control = 100%, mean ± standard deviation. The protocol:
as §1, §2

The nature of series [3]: WST-1 proliferation assay, A549. Format: cell-based. The conditions noted are these: human, A549 cells (lung carcinoma), vs 0.1% DMSO control = 100%, mean ± standard deviation. The protocol:
as §1, §2

A short description of series [4]: WST-1 proliferation assay, HT-29. The class given is cell-based. To be noted: human, HT-29 cells (colorectal adenocarcinoma), vs 0.1% DMSO control = 100%, mean ± standard deviation. The protocol: as §1, §2
The nature of series [5]: WST-1 proliferation assay, PANC-1. The class given is cell-based. To be noted: human, PANC-1 cells (pancreas epithelioid carcinoma), vs 0.1% DMSO control = 100%, mean ± standard deviation. How it is done:
as §1, §2

The nature of series [6]: WST-1 proliferation assay, MCF-7. Format: cell-based. To be noted: human, MCF-7 cells (breast adenocarcinoma), vs 0.1% DMSO control = 100%, mean ± standard deviation. The protocol: as §1, §2
Series [7] in a line: WST-1 proliferation assay, SAOS-2. The class given is cell-based. The conditions noted are these: human, SAOS-2 cells (osteosarcoma), vs 0.1% DMSO control = 100%, mean ± standard deviation. How it is done:
as §1, §2

The nature of series [8]: WST-1 proliferation assay, MRC-5. The class given is cell-based. The conditions noted are these: human, MRC-5 cells (normal lung fibroblasts), vs 0.1% DMSO control = 100%, mean ± standard deviation. How it is done:
as §1, §2

Series [9] has as its system panel of human cell lines. Kind of series: Overall cytotoxicity screening across the cell line panel (growth percent). Format: cell-based. The conditions noted are these: 100 μM, 48 h, single-dose treatment, WST-1. How it is done:
as §1
Selected human tumor and non-tumor cell lines Jurkat (acute T-cell leukemia), MOLT-4 (acute lymphoblastic leukemia), A549 (lung carcinoma), HT-29 (colorectal adenocarcinoma), PANC-1 (pancreas epithelioid carcinoma), MCF-7 (breast adenocarcinoma), SAOS-2 (osteosarcoma) and MRC-5 (normal lung fibroblasts) were purchased from either American Type Culture Collection (ATCC; VA, USA) or Sigma-Aldrich (St. Louis, MO, USA) and cultured according to the provider's culture method guidelines. […]

A further series relates to mice. The arrangement: method as in PMID 29852368. The conditions noted are these: 200 mg kg^−1 dose; cited from earlier work.

“Also recorded” adds a separate entry of the source.

Usually viability stands for a read-out of living cells in per cent, often relative to untreated cells. `OCCN1CCN(CC(O)COc2cc(Cl)c(Cl)cc2Cl)CC1` (stereo not shown) [Compound 8, 1-(4-(2-Hydroxyethyl)piperazin-1-yl)-3-(2,4,5-trichlorophenoxy)propan-2-ol]: the viability at 48 h, 100 µM in series [1] came out at 28 ± 4%; in series [2], 41 ± 8%; in [3], 92 ± 12%; in [4], 33 ± 3%; in series [5] it was 101 ± 2%; in series [6] it was 41 ± 7%. In addition, the viability at 48 h, 100 µM in series [7] came to 42 ± 5%; in series [8], 15 ± 10%. For the same compound, the “Overall cytotoxic activity across cell lines (in words)” value in [9] is listed as “severe toxicity to most of the tested cell lines; also recorded: exhibited stand-alone cytotoxicity”.
`O=C1N=C(N2CCN(CCO)CC2)S/C1=C\c1ccc(-c2ccccc2)cc1` [CLZ-8]: the “Survival of mice (in words)” value in the series with mice is listed as “significantly improved their survival”.
For the compound `OCCN1CCN(CC(O)COc2ccc(Oc3ccc(F)cc3)cc2)CC1` (stereo not shown) [Compound 7, 1-(4-(2-Hydroxyethyl)piperazin-1-yl)-3-(4-(4-fluorophenoxy)phenoxy)propan-2-ol], the viability at 48 h, 100 µM in series [1] is 2%; in series [2], 6 ± 5%; in [3], 6 ± 2%; in series [4] it was 12 ± 2%; in [5] it was 55 ± 6%; in [6], 7 ± 7%. The viability at 48 h, 100 µM is 15 ± 5% in [7] and 0% in series [8]. Further, the “Overall cytotoxic activity across cell lines (in words)” value in series [9] is on record as “severe toxicity to most of the tested cell lines; also recorded: exhibited stand-alone cytotoxicity”.
